Data: patent US20090298691A1, “METHODS AND COMPOSITIONS FOR CONTROL OF AQUATIC WEEDS USING HERBICIDAL COMBINATIONS WITH FLURIDONE” (priority 2008, published 2009)

Key:
hydrilla [1] = details: literature; cited from earlier work
Eurasian watermilfoil = assay: Example 5: Eurasian watermilfoil in 12 L tanks, 40 day exposure, root and shoot dry weights; format: in vivo; details: 75 ppb; 40 days
Excerpt: Apical sections (12 to 15 cm in length) of Eurasian watermilfoil (EWM) were taken from Sweetwater Lake, Ind. and from culture and planted into small pots (13.5 cm length×3.75 cm diameter) containing Wallace Farm® topsoil amended with 14-14-14 slow release Osmocote® fertilizer (˜2.5 g Osmocote/kg soil). Approximately 5 to 7 cm of the apical section extended above the sediment at planting, and a sand cap was placed over the potting soil (˜2 cm deep). Plants were then transferred to a 12 L acrylic tanks filled with well water. Plants were allowed to grow for 7 days before the following treatment was initiated in triple replicate:
Plants were harvested at 40 days. At harvest, plants were rinsed free of algae, roots and shoots were separated, and placed in paper sacks in a drying oven for 4 days at 70° C. temperature, and dry weights were determined (FIG. 6).

maidencane = assay: Example 7: greenhouse mesocosm selectivity trial, 60-day exposure, aboveground shoot biomass; format: in vivo, Panicum hemitomon; details: total parts per billion, non-linear regression
Excerpt: (§1) Five different native aquatic plants were acquired from a Florida supplier (Aquatic Plants of Florida, Sarasota, Fla.). These species were jointed spikerush (Eleocharis interstincta), spatterdock (Nuphar advena), soft-stem bulrush (Scirpus validus), and maidencane (Panicum hemitomon), and tapegrass (Vallisneria americana). The final native species in the trial—Egyptian panicgrass or Kissimmee ‘Knotgrass’ (Paspalidium geminatum)—and fluridone-resistant hydrilla were collected from West Lake Tohopekaliga (Osceola County, FL). Transplanted tissue for each native species included both young fresh shoot growth and a portion of root stock/rhizome. Hydrilla was planted as 30 cm sections of fresh apical shoot growth. All plants were transplanted into commercial retail topsoil amended with slow-release granular 14-14-14 fertilizer at rate of 2.5 g fertilizer per kg soil. Spatterdock rhizomes were transplanted into 11.4L plastic garden pots, while all other species were transplanted into 1.9-L pots. Soil in each pot was capped with a layer of sand. […]
(§2) Three weeks after transplanting, herbicide stock solutions were used to apply either fluridone or penoxsulam alone or in combination. […] Four replicate pots of each species were harvested at time of treatment to quantify pre-treatment aboveground biomass. […]

[2] = tested on: Lake Okahumpka hydrilla (fluridone resistant biotype); assay: Example 1: hydrilla in 14 L cylinders, 25 days of exposure, total stem length and fresh weight; format: in vivo, Hydrilla verticillata; details: 12 ppb (combination 6 ppb each)
Excerpt: (§3) Apical sections of hydrilla were collected from Rainbow River and Lake Okahumpka, Fla. Hydrilla in Lake Okahumpka is known to have developed increased tolerance to fluridone (FRH). The biotype from Rainbow River has never been exposed to fluridone and is presumably fluridone susceptible. Apical sections were planted in potting soil amended with Osmocote fertilizer in small pots (13.5 cm length×3.75 cm diameter). A 2.54 cm sand layer was placed over the top of the potting soil. Pots containing each biotype of hydrilla were placed into 14 L acrylic cylinders and allowed to establish slight growth prior to treatment. Cylinders were then treated with penoxsulam (P) or fluridone (F) at 12 ppb, and fluridone+penoxsulam (1:1 ratio) at 6 ppb (3 ppb each) and 12 ppb (6 ppb each). All treatments were replicated 4 times. After 25 days of exposure, plants were harvested and total stem length and fresh weights were measured.

[3] = tested on: Hydrilla (FR), fluridone-resistant hydrilla; assay: Example 7: greenhouse mesocosm selectivity trial, 60-day exposure, aboveground shoot biomass; format: in vivo, Hydrilla verticillata; details: total parts per billion, non-linear regression
Excerpt: as §1, §2

hydrilla [4] = assay: Contact time of penoxsulam alone under operational field use; format: in vivo, Hydrilla verticillata
tapegrass = assay: Example 7: greenhouse mesocosm selectivity trial, 60-day exposure, aboveground shoot biomass; format: in vivo, Vallisneria americana; details: total parts per billion, non-linear regression
Excerpt: as §1, §2

spatterdock = assay: as above; format: in vivo, Nuphar advena; details: total parts per billion, non-linear regression
Excerpt: as §1, §2

[5] = tested on: CAIP hydrilla (fluridone susceptible biotype); assay: Example 2: hydrilla in 14 L cylinders, c.a. 30 days exposure, plant weights; format: in vivo, Hydrilla verticillata; details: 6 ppb
Excerpt: (§4) Hydrilla was collected from three sources in Florida; two representing fluridone resistant biotypes (Lake Okahumpka and Lake Cypress) and one fluridone susceptible biotypes (CAIP). Apical sections containing a single meristem were planted in small pots (13.5 cm length×3.75 cm diameter) containing potting soil and amended with Osmocote fertilizer. Each biotype were placed into 14 L cylinders and allowed to establish growth for 6-days prior to treatment. Treatments were replicated three times and included: controls, penoxsulam 6 and 12 ppb; fluridone 6 and 12 ppb; combinations of fluridone+penoxsulam (1:1 ratio) at 12 ppb (6 ppb each). Plants were exposed for c.a. 30 days and then harvested to determine plant weights.

[6] = tested on: Lake Okahumpka hydrilla (fluridone resistant biotype); assay: as above; format: in vivo, Hydrilla verticillata; details: for biomass reduction: 6 ppb
Excerpt: as §4

[7] = tested on: Lake Cypress hydrilla (fluridone resistant biotype); assay: as above; format: in vivo, Hydrilla verticillata; details: for biomass reduction: 6 ppb
Excerpt: as §4

[8] = tested on: panicgrass (Egyptian panicgrass, Kissimmee 'Knotgrass'); assay: Example 7: greenhouse mesocosm selectivity trial, 60-day exposure, aboveground shoot biomass; format: in vivo, Paspalidium geminatum; details: total parts per billion, non-linear regression
Excerpt: as §1, §2

soft-stem bulrush = assay: as above; format: in vivo, Scirpus validus; details: total parts per billion, non-linear regression
Excerpt: as §1, §2

jointed spikerush = assay: as above; format: in vivo, Eleocharis interstincta; details: total parts per billion, non-linear regression
Excerpt: as §1, §2

[9] = tested on: Rainbow River hydrilla (fluridone susceptible); assay: Example 1: hydrilla in 14 L cylinders, 25 days of exposure, total stem length and fresh weight; format: in vivo; details: Hydrilla verticillata, 600 h, 12 ppb (combination 6 ppb each), read-out: stem length inhibited compared to control plants
Excerpt: as §3

[10] = tested on: fluridone susceptible hydrilla biotype; assay: Example 3: hydrilla in 14 L cylinders, 56 days exposure, dry weights; format: in vivo, Hydrilla verticillata; details: 3 ppb
Excerpt: (§5) Hydrilla was collected from two sources in Florida representing a fluridone resistant biotype (Lake Cypress) and a fluridone susceptible biotype. Apical sections containing a single meristem were planted in small pots (13.5 cm length×3.75 cm diameter) containing potting soil and amended with Osmocote fertilizer. Each biotype were placed into 14 L cylinders and allowed to establish growth prior to treatment. Treatments were replicated three times and included: controls, penoxsulam or fluridone at 3 and 6 ppb; combinations of fluridone+penoxsulam (1:1 ratio) at 6 ppb (3 ppb of each). Plants were exposed for 56 days and then harvested to determine dry weights. At 14 days after treatment (DAT) net photosynthesis from exposed plant tissue was measured.

[11] = tested on: fluridone resistant hydrilla biotype (Lake Cypress); assay: as above; format: in vivo, Hydrilla verticillata; details: 3 ppb
Excerpt: as §5

target plant = details: Sonar A.S. label; cited from earlier work

| Molecule | Calculated EC50 on shoot biomass (maidencane) [ppb] | Calculated EC50 on shoot biomass [3] [ppb] | Calculated EC50 on shoot biomass (tapegrass) [ppb] | Calculated EC50 on shoot biomass (spatterdock) [ppb] | biomass reduction [5] [%] | biomass reduction [6] | biomass reduction [7] | Calculated EC50 on shoot biomass [8] [ppb] | Calculated EC50 on shoot biomass (soft-stem bulrush) [ppb] | Calculated EC50 on shoot biomass (jointed spikerush) [ppb] | reduction in biomass compared to controls [10] [%] | reduction in biomass compared to controls [11] | also measured |
| --- | --- | --- | --- | --- | --- | --- | --- | --- | --- | --- | --- | --- | --- |
| O=C(O)C1C2CCC(O2)C1C(=O)O (centres unmarked) [Endothall, 7-oxabicyclo[2.2.1]heptane-2,3-dicarboxylic acid] |  |  |  |  |  |  |  |  |  |  |  |  | contact with hydrilla to achieve effective control (hydrilla [1]): less than 72 hours |
| O=C(O)COc1nc(Cl)c(Cl)cc1Cl [Triclopyr, 3,5,6-trichloro-2-pyridyloxyacetic acid] |  |  |  |  |  |  |  |  |  |  |  |  | above ground biomass reduction (Eurasian watermilfoil): 96%; below ground biomass reduction (Eurasian watermilfoil): 74% |
| COc1cnc(OC)n2nc(NS(=O)(=O)c3c(OCC(F)F)cccc3C(F)(F)F)nc12 [Penoxsulam] | 52.5 | 4.4 | 9.6 | 12.5 | 63 | 53% | 57% | 267.6 | 8.9 | 12.8 | ~40 | ~40% | inhibition at 0.012 ppm ([2]; Hydrilla verticillata, 600 h, read-out: stem length inhibited compared to control plants): ~40%; contact time to achieve full hydrilla control (hydrilla [4]): greater than 4 months; inhibition at 0.012 ppm [9]: 50 to 60% |
| 1-methyl-3-phenyl-5-3-(trifluoromethyl)phenyl-4(1H)-pyridinone [Fluridone] | 4.4 | 10.1 | 4.4 | 2.5 | 60 | minimal affect | minimal affect | 14.4 | 5.3 | 28.3 | ~50 | no effect | minimum time maintained in contact with a target plant (target plant): ≥ 45 days; effect on fluridone tolerant biotype (stem length, biomass), in words [2]: little effect; stem length inhibited compared to control plants [2]: ~10%; effect on biomass, in words ([6]; up to 12 ppb): generally not affected; effect on biomass, in words ([7]; up to 12 ppb): generally not affected |
